Source: patent US12582616B2, “Molecular targets for modulation of dissociative and associative states” (The Board of Trustees of the Leland Stanford Junior …, priority 2020, dated 2026)
Entries after “also recorded” stand apart in the source; their conditions may differ.

Key:
[1] = system: mice; assay: Open field test; assay type: in vivo, mouse; details: 5 min session, compared with saline
Source text: Open Field Test: Mice were placed in an evenly illuminated 50 cm×50 cm open field test box. Mouse position was captured using a webcam and Viewer software (Biobserve).

[2] = system: retrosplenial cortex (RSP); assay: Fiber photometry and widefield imaging of RSP, dose comparison; assay type: in vivo, mouse
Source text: A 405 nm and 470 nm LED illumination (Thorlabs) was combined (425 nm longpass, Thorlabs DMLP425) and coupled into a fiber optic patch cord (400 μm diameter, 0.48 NA, Doric Lenses) using a longpass dichroic (505 nm, Thorlabs DMLP505) and a fixed-focused coupler/collimator with a standard FC connector (F240FC-A, NA 0.51, f=7.9 mm)^47,48. Each illumination channel was frequency modulated using the sync output from a lock-in amplifier (SR810 DSP, Stanford Research Systems). GCaMP fluorescence was collected through the same patchcord and delivered through a bandpass emission filter (Semrock, FF01-520/35) onto a NewFocus 2151 femtowatt silicon photoreceiver (Newport, DC Low mode). […]
Analysis was performed using custom MATLAB (MathWorks) scripts. […] For quantification, activity traces were extracted from points centered in five cortical regions (visual, somatosensory, parietal, motor, retrosplenial) on the left hemisphere of the brain. […]
Each trace (corresponding to either a fiber photometry signal, a cellular two-photon signal, a widefield regional centroid, a widefield pixel, an sEEG trace, or a smoothed spike rate Neuropixels trace) was z-scored, and the power spectral density (PSD) was then estimated using Welch's method (pwelch( ) in Matlab), with a window size of 10*fs (15*fs for human sEEG) where fs is the sampling rate of the signal. […]

[3] = system: retrosplenial cortex (RSP); assay: Retrosplenial gene disruption (HCN1, GRIN1) and fiber photometry; assay type: in vivo, mouse
Procedure: A 405 nm and 470 nm LED illumination (Thorlabs) was combined (425 nm longpass, Thorlabs DMLP425) and coupled into a fiber optic patch cord (400 μm diameter, 0.48 NA, Doric Lenses) using a longpass dichroic (505 nm, Thorlabs DMLP505) and a fixed-focused coupler/collimator with a standard FC connector (F240FC-A, NA 0.51, f=7.9 mm)^47,48. Each illumination channel was frequency modulated using the sync output from a lock-in amplifier (SR810 DSP, Stanford Research Systems).
Analysis was performed using custom MATLAB (MathWorks) scripts. Widefield imaging videos were registered to a 2D top-projection atlas generated from the annotated Allen Brain Atlas volume, version CCFv2, in MATLAB (MathWorks), using an affine transformation computed from four manually selected control points. Each video was DF/F normalized, using the median for each pixel over the entire time series as F. The 410 nm channel was then temporally smoothed using a moving average (width=400 ms). The smoothed 410 nm DF/F signal for each pixel was regressed onto the 488 nm DF/F signal for the corresponding pixel, and the regression coefficients were used to scale the 410 nm channel to the 488 nm channel. This scaled 410 nm DF/F signal was then subtracted from the 488 nm DF/F signal to produce a normalized signal for each pixel. For quantification, activity traces were extracted from points centered in five cortical regions (visual, somatosensory, parietal, motor, retrosplenial) on the left hemisphere of the brain. The video data was Gaussian smoothed spatially (radius=2 pixels). Similarly, for fiber photometry recordings, the 410 nm signal was regressed onto the 488 nm signal, the 410 nm signal was scaled by the regression coefficients, and then subtracted from the 488 nm signal.
Stereotaxic Surgery: Adult male and female HCN1^f/f, NR1^f/f, or wildtype C57/BI6 were injected bilaterally in two retrosplenial locations (AP −3.1 and −3.4, ML+/−0.5, DV −0.5) with 1 uL of AAV8-Ef1 a-mCherry-IRES-Cre (titer 5E11) and AAVdj-Ef1a-DIO-GCaMP6m (titer 1E13). A 400-micron optical fiber was implanted over one injection location. […]

[4] = system: humans; details: human; cited from earlier work
[5] = system: retrosplenial cortex (RSP); assay: Widefield imaging of cortical activity in GCaMP6s mice
Source text: We recorded multiregional neuronal activity by leveraging widefield microscopy, a cleared skull preparation, and atlas registration in GCaMP6s-expressing mice (FIGS. 1A-1C)^6,8,15.
As described^8, mice were anesthetized with isoflurane, the scalp was removed, the skull cleaned and dried, and a custom head-plate was cemented to contacts over the cerebellum and in front of the olfactory bulb. The skull was then covered in a thin layer of cyanoacrylate glue (Apollo 2000, Cyberbond), clear dental acrylic (Ortho-Jet, Lang Dental), and clear nail polish (Electron Microscopy Services). […] (0.1 mg/kg) was injected subcutaneously for pain management. […] Imaging was performed on a custom-built fluorescence microscope designed for high light collection efficiency and large field of view. […] Alternating 410 nm and 488 nm illumination for non-Ca^2+ dependent artifact removal was controlled using a microcontroller (Arduino) slaved to the frame output trigger of the camera.
Each trace (corresponding to either a fiber photometry signal, a cellular two-photon signal, a widefield regional centroid, a widefield pixel, an sEEG trace, or a smoothed spike rate Neuropixels trace) was z-scored, and the power spectral density (PSD) was then estimated using Welch's method (pwelch( ) in Matlab), with a window size of 10*fs (15*fs for human sEEG) where fs is the sampling rate of the signal. The average band power within a specified band (i.e. 1-3 Hz) was then computed by integrating the PSD estimate (bandpower in Matlab). […] Unless otherwise indicated, the PSD was computed across the time window from minutes 10 to 11 post-injection.

In the case of `CNC1(c2ccccc2Cl)CCCCC1=O` (stereo not shown) [ketamine], the open-field locomotion velocity [1] was “decreased velocity”, the “1-3 Hz RSP oscillation” value ([2]; ketamine 13 mg/kg, listed as Ketamine) was “not 13 mg/kg” and the “1-3 Hz RSP oscillation” value ([2]; ketamine 25 mg/kg) was “rhythm at 25 mg/kg”. The “ketamine-induced RSP oscillation” value ([3]; local GRIN1 (NMDAR) knockout in RSP) was “significantly diminished; also recorded: partially attenuated; also recorded: Reduced ketamine-induced oscillation-power”, the “ketamine-induced RSP oscillation” value ([3]; local HCN1 knockout in RSP) was “significantly diminished; also recorded: selectively abolished both the ketamine-induced rhythm and dissociation-like behavioral effects; also recorded: no longer induced the deep retrosplenial rhythm; also recorded: Reduced ketamine-induced oscillation-power” and the “ketamine-induced RSP oscillation” value ([3]; wild-type) was “preserved in wild-type”. The “dose at which humans consistently report potent dissociation” value [4] was 2 to 3 mg/kg, the “typical dose for anti-depressant effects” value [4] was 0.3 to 1 mg/kg and the “magnitude of RSP rhythm on repeated days” value ([5]; five consecutive days) was “exhibited similar magnitude across five consecutive days”. For the same molecule, the “1-3 Hz oscillation localized to retrosplenial cortex (RSP), widefield imaging” value ([5]; i.p. injection, ketamine 50 mg/kg) was “a 1-3 Hz oscillation emerged in retrosplenial cortex (RSP), but not in any other cortical region”.
